# Assay results published in patent US9738697B2 (Wisconsin Alumni Research Foundation, priority 2013, dated 2017).
# How the values were obtained:
# human GLP-1 receptor = human GLP-1 receptor (Homo sapiens, UniProt P43220); assay: GLP-1R activation monitored by cAMP production in HEK293 cells
# C57BL/6J mice = assay: Glucose tolerance test (GTT) in mice; format: in vivo, mouse
# Procedure: ID. NO: 7 was administered to mice by interperitoneal (i.p.) injection at a 1 mg/kg dose, or lower for SEQ. ID. NO: 7, using an injection volume of 10 mL/kg body mass. Each peptide was first dissolved in prefiltered DMSO at 10 mg/mL concentration, then diluted >20-fold with TBS buffer, pH 7.4 (final DMSO conc.=<5%). Glucose was administered by i.p. injection with a sterile-filtered 30% D-glucose-saline solution at a 1.5 g/kg dose using a 5 mL/kg injection volume.
# Thirteen-week-old male C57BL/6J mice (The Jackson Laboratory) (n=4) were fasted overnight on wood chip bedding for 15 hours prior to the experiment. Blood glucose levels were monitored from a tail tip bleed using an ACCU-CHEK®-brand blood glucose meter (Roche Diagnostics, Indianapolis, Ind.). Fasting glucose levels were measured at 75 minutes prior to the glucose injection (t=−75 min), and the compound injection was performed 60 minutes prior to the glucose injection (t=−60 min). Glucose levels were measured immediately prior to the glucose injection (t=0 min) to assess any changes in the baseline glucose caused by peptide administration. Blood glucose levels were monitored at 30, 60, 90, and 120 minutes after injection of glucose.
# Five hours after peptide injection, the mice received a second injection of 1.5 g/kg glucose. Blood glucose was monitored at 30 min after this second glucose injection. Mice were sacrificed by CO2 inhalation at the conclusion of the GTT.
# mouse pancreatic islets = assay: Islet cell insulin secretion assay (glucose-stimulated insulin secretion, insulin content); format: cell-based
# Procedure: A critical physiological role of GLP-1 is to augment glucose-stimulated insulin secretion (GSIS) from pancreatic islet β cells. α/β-Peptide SEQ. ID. […] The results are depicted in FIG. 2.
# ID. NO: 7. Approximately 100 medium sized islets were washed three times, placed in a sterile Petri dish, and incubated overnight in culture medium (RPMI 1640, with 11.1 mM glucose, antibiotics and 10% heat-inactivated fetal bovine serum). The following day, 50 islets were washed and transferred in […] of Krebs Ringer Buffer (KRB) to a Swinnex®-brand filter holder (EMD Millipore, Billerica, Mass.). The islets were sandwiched between two layers of Bio-Gel P-2 bead (Bio-Rad, Hercules, Calif.) solution (200 mg beads/mL in KRB; bottom layer, […] and top layer, […]). The Swinnex filter holder was attached in-line with a Minipuls®-brand pump (Gilson, Middleton, Wis.) and a FC 204 Fraction Collector (Gilson). Islets were perifused at the rate of 1 mL/min, and samples were collected at 30 sec intervals. Insulin content of the islets themselves and insulin secretion were determined by ELISA. […] ID. NO: 7.
# neprilysin = target: T1, neprilysin (Homo sapiens, UniProt P08473); assay: Protease assay with neprilysin (HPLC); format: in vitro ADME; details: 40 μg/mL neprilysin
# T1 construct: purchased Reprokine; Ltd. RKP08473
# Procedure: An HPLC method from the literature was used to assess protease action on selected compounds.^29,31 Two nmol of solid peptide was dissolved in 40 μL of TBS pH 8.0 (resulting concentration of peptide=40 μM) before protease was added. Chymotrypsin was purchased from Promega (Fitchburg, Wis.; catalog #V1062), and neprilysin was purchased from Reprokine. Ltd. (Valley Cottage, N.Y.; catalog #RKP08473); stock solutions of 250 μg/mL chymotrypsin and 200 μg/mL neprilysin in water were prepared. A 10 μL aliquot of protease stock solution was added to 40 μL of 40 μM peptide solution to begin the reaction. Periodically, a 10 μL aliquot of the solution was removed, and protease action was halted by adding this aliquot to 100 μL of 1% aqueous TFA solution. […] The time course of peptide degradation was experimentally determined by integrating the area of each peak in a series of HPLC traces. The area percent of parent peptide (relative to the initial trace) was calculated for each trace and plotted in GraphPad Prism as an exponential decay to determine half-life values.
# Major backbone cut sites, as determined by MALDI-TOF-MS, are indicated with double front slashes.
# chymotrypsin = target: T2, chymotrypsin (Bos taurus, UniProt P00766); assay: Protease assay with chymotrypsin (HPLC); format: in vitro ADME; details: chymotrypsin in TBS; 40 μM peptide, 50 μg/mL chymotrypsin, TBS pH 8.0, room temperature; read-out: t1/2 with chymotrypsin (converted)
# T2 construct: purchased Promega V1062
# Procedure: An HPLC method from the literature was used to assess protease action on selected compounds.^29,31 Two nmol of solid peptide was dissolved in 40 μL of TBS pH 8.0 (resulting concentration of peptide=40 μM) before protease was added. Chymotrypsin was purchased from Promega (Fitchburg, Wis.; catalog #V1062), and neprilysin was purchased from Reprokine. Ltd. (Valley Cottage, N.Y.; catalog #RKP08473); stock solutions of 250 μg/mL chymotrypsin and 200 μg/mL neprilysin in water were prepared. A 10 μL aliquot of protease stock solution was added to 40 μL of 40 μM peptide solution to begin the reaction. Periodically, a 10 μL aliquot of the solution was removed, and protease action was halted by adding this aliquot to 100 μL of 1% aqueous TFA solution. A portion (100 μL) of the quenched solution was injected onto an HPLC column using the conditions described under “Peptide Synthesis”, and peaks were analyzed using MALDI-TOF MS. The time course of peptide degradation was experimentally determined by integrating the area of each peak in a series of HPLC traces. The area percent of parent peptide (relative to the initial trace) was calculated for each trace and plotted in GraphPad Prism as an exponential decay to determine half-life values.
# ID. […] Major backbone cut sites are indicated with double front slashes. […] Digestion occurs at three major cleavage sites. […] ID. NO: 7 with 50 μg/mL chymotrypsin in TBS pH 8.0 at room temperature. […] ID. NO: 9 with 50 μg/mL chymotrypsin in TBS pH 8.0 at room temperature. This peptide has seven substitutions, α→Aib.
# human GLP-1 receptor, sequence (P43220 24-463): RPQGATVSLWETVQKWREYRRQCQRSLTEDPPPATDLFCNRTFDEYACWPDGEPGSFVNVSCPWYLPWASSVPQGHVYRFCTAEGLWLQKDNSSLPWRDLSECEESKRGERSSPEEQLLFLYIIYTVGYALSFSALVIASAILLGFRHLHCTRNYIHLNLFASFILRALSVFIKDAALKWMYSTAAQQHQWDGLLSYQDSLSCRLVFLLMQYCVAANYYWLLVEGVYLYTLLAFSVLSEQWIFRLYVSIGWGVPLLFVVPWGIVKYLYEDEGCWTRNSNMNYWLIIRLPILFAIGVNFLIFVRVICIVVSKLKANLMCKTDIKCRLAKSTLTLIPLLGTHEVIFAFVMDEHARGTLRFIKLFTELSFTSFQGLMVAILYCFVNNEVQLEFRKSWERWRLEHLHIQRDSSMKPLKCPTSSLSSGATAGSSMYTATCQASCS
# T1 sequence (P08473 whole entry): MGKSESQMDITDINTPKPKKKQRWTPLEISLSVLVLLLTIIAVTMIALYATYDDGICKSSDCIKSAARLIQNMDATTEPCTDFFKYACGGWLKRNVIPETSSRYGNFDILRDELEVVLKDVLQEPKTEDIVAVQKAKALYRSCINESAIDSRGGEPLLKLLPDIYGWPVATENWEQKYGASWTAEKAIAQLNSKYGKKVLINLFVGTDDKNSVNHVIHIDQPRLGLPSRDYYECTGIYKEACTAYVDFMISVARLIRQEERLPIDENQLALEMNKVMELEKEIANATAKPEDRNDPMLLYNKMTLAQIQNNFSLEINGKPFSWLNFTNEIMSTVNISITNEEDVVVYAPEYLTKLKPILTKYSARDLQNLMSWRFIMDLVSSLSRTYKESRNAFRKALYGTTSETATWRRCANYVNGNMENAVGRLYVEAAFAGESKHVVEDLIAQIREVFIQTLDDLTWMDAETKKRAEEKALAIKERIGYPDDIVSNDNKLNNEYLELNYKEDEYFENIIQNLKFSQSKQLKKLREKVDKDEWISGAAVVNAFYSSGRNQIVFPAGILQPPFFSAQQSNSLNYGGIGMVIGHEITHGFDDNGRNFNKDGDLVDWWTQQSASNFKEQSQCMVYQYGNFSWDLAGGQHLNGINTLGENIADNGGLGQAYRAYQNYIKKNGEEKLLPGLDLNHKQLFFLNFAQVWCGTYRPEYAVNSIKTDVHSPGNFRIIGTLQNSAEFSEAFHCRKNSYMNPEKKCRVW
compound,measurement,setting,value
CC[C@H](C)[C@H](NC(=O)[C@H](Cc1ccccc1)NC(=O)[C@H](CCC(=O)O)NC(=O)[C@H](CCCCN)NC(=O)[C@H](C)NC(=O)[C@H](C)NC(=O)[C@H](CCC(N)=O)NC(=O)CNC(=O)[C@H](CCC(=O)O)NC(=O)[C@H](CC(C)C)NC(=O)[C@H](Cc1ccc(O)cc1)NC(=O)[C@H](CO)NC(=O)[C@H](CO)NC(=O)C(C)(C)NC(=O)[C@H](CC(=O)O)NC(=O)[C@H](CO)NC(=O)[C@@H](NC(=O)[C@H](Cc1ccccc1)NC(=O)[C@@H](NC(=O)CNC(=O)[C@H](CCC(=O)O)NC(=O)[C@H](C)NC(=O)[C@@H](N)Cc1c[nH]cn1)[C@@H](C)O)[C@@H](C)O)C(=O)N[C@@H](C)C(=O)N[C@@H](Cc1c[nH]c2ccccc12)C(=O)N[C@@H](CC(C)C)C(=O)N[C@H](C(=O)N[C@@H](CCCCN)C(=O)NCC(=O)N[C@@H](CCCNC(=N)N)C(=O)NCC(N)=O)C(C)C [SEQ. ID. NO: 14],agonist character at GLP-1R (in words),human GLP-1 receptor; cAMP production,native-like efficacy and potency
"CC[C@H](C)[C@H](NC(=O)[C@H](Cc1ccccc1)NC(=O)[C@H](CCC(=O)O)NC(=O)C1CCCC1NC(=O)[C@H](C)NC(=O)[C@H](C)NC(=O)[C@H](CCC(N)=O)NC(=O)C1CCCC1NC(=O)[C@H](CCC(=O)O)NC(=O)[C@H](CC(C)C)NC(=O)[C@H](Cc1ccc(O)cc1)NC(=O)C1CCCC1NC(=O)[C@H](CO)NC(=O)[C@@H](NC(=O)[C@H](CC(=O)O)NC(=O)C1CCCC1NC(=O)[C@@H](NC(=O)[C@H](Cc1ccccc1)NC(=O)[C@@H](NC(=O)CNC(=O)[C@H](CCC(=O)O)NC(=O)[C@H](C)NC(=O)[C@@H](N)Cc1c[nH]cn1)[C@@H](C)O)[C@@H](C)O)C(C)C)C(=O)NC1CCCC1C(=O)N[C@@H](Cc1c[nH]c2ccccc12)C(=O)N[C@@H](CC(C)C)C(=O)N[C@H](C(=O)NC1CNCC1C(=O)NCC(=O)N[C@@H](CCCNC(=N)N)C(=O)NCC(N)=O)C(C)C (some centres unmarked) [SEQ. ID. NO: 6, H-HAEGTFTXDVSXYLEXQAAXEFIXWLVZGRG-NH2]",EC50,human GLP-1 receptor,> 100 nM
same,cAMP production at 100 nM (in words),human GLP-1 receptor; 100 nM peptide,only a small amount of cAMP production
same,"cAMP production, AVERAGES at M Concentrations −7",human GLP-1 receptor; peptide concentration −7 (log M),100
same,"cAMP production, AVERAGES at M Concentrations −8",human GLP-1 receptor; peptide concentration −8 (log M),99.2328
same,"cAMP production, AVERAGES at M Concentrations −9",human GLP-1 receptor; peptide concentration −9 (log M),42.7672
same,"cAMP production, AVERAGES at M Concentrations −10",human GLP-1 receptor; peptide concentration −10 (log M),18.05
same,"cAMP production, AVERAGES at M Concentrations −12",human GLP-1 receptor; peptide concentration −12 (log M),5.688
same,"cAMP production, AVERAGES at M Concentrations −13",human GLP-1 receptor; peptide concentration −13 (log M),5.688
"Exendin-4: GLP-1R agonist found in the saliva of the Gila monster (39 residues), active agent in exenatide; purchased from Anaspec",rise of glucose relative to vehicle-treated mice during the GTT (in words),C57BL/6J mice; 1 mg/kg,dramatic suppression
same,Average Blood Glucose Level,"C57BL/6J mice; 1 mg/kg i.p., time 0.0 min",89.5 mg/dL
same,Average Blood Glucose Level,"C57BL/6J mice; 1 mg/kg i.p., time 30.0 min",123.5 mg/dL
same,Average Blood Glucose Level,"C57BL/6J mice; 1 mg/kg i.p., time 60.0 min",87.0 mg/dL
same,Average Blood Glucose Level,"C57BL/6J mice; 1 mg/kg i.p., time 90.0 min",67.5 mg/dL
same,Average Blood Glucose Level,"C57BL/6J mice; 1 mg/kg i.p., time 120.0 min",70.0 mg/dL
same,Average Blood Glucose Level,"C57BL/6J mice; 1 mg/kg i.p., time −60.0 min (peptide injection)",118.0 mg/dL
same,Average Blood Glucose Level at 30 min (column head AUC),"C57BL/6J mice; 1 mg/kg i.p., Table 7, 30 min after second glucose injection given five hours after peptide",118.8
same,glucose-lowering effect in GTT repeated 5 hours after agonist administration (in words),"C57BL/6J mice; 1 mg/kg, 30 min after the second glucose challenge",maintained
CC[C@H](C)[C@H](NC(=O)[C@H](Cc1ccccc1)NC(=O)[C@H](CCC(=O)O)NC(=O)[C@H](CCCCN)NC(=O)[C@H](C)NC(=O)[C@H](C)NC(=O)[C@H](CCC(N)=O)NC(=O)CNC(=O)[C@H](CCC(=O)O)NC(=O)[C@H](CC(C)C)NC(=O)[C@H](Cc1ccc(O)cc1)NC(=O)[C@H](CO)NC(=O)[C@H](CO)NC(=O)[C@@H](NC(=O)[C@H](CC(=O)O)NC(=O)[C@H](CO)NC(=O)[C@@H](NC(=O)[C@H](Cc1ccccc1)NC(=O)[C@@H](NC(=O)CNC(=O)[C@H](CCC(=O)O)NC(=O)[C@H](C)NC(=O)[C@@H](N)Cc1c[nH]cn1)[C@@H](C)O)[C@@H](C)O)C(C)C)C(=O)N[C@@H](C)C(=O)N[C@@H](Cc1c[nH]c2ccccc12)C(=O)N[C@@H](CC(C)C)C(=O)N[C@H](C(=O)N[C@@H](CCCCN)C(=O)NCC(=O)N[C@@H](CCCNC(=N)N)C(N)=O)C(C)C [GLP-1(7-36)-NH2],increase in glucose-stimulated insulin secretion (GSIS),"mouse pancreatic islets; freshly isolated mouse islets, 90 nM agonist",~2 fold
CC[C@H](C)[C@H](NC(=O)[C@H](Cc1ccccc1)NC(=O)[C@H](CCC(=O)O)NC(=O)C(C)(C)NC(=O)[C@H](C)NC(=O)[C@H](C)NC(=O)[C@H](CCC(N)=O)NC(=O)C(C)(C)NC(=O)[C@H](CCC(=O)O)NC(=O)[C@H](CC(C)C)NC(=O)[C@H](Cc1ccc(O)cc1)NC(=O)C(C)(C)NC(=O)[C@H](CO)NC(=O)C(C)(C)NC(=O)[C@H](CC(=O)O)NC(=O)[C@H](CO)NC(=O)[C@@H](NC(=O)[C@H](Cc1ccccc1)NC(=O)[C@@H](NC(=O)CNC(=O)[C@H](CCC(=O)O)NC(=O)C(C)(C)NC(=O)[C@@H](N)Cc1c[nH]cn1)[C@@H](C)O)[C@@H](C)O)C(=O)NC(C)(C)C(=O)N[C@@H](Cc1c[nH]c2ccccc12)C(=O)N[C@@H](CC(C)C)C(=O)N[C@H](C(=O)NC(C)(C)C(=O)NCC(=O)N[C@@H](CCCNC(=N)N)C(=O)NCC(N)=O)C(C)C [SEQ. ID. NO: 9],"number of major cleavage sites, neprilysin",neprilysin; MALDI-TOF-MS,six
same,half-life,"neprilysin; neprilysin in TBS, pH 8, 40 μM peptide, TBS pH 8.0, room temperature, read-out: half-life (t1/2) with neprilysin (converted)",8.3 h
same,half-life,chymotrypsin,2.25 min
"GLP-1: glucagon-like peptide-1; used loosely for GLP-1(7-36)-NH2 (Tables 3, 5) or GLP-1(7-37)-NH2",Insulin Content average (ng/3 islets),mouse pancreatic islets; high glucose + 3 nM peptide,522.1 ng/3 islets
same,Insulin Content average (ng/3 islets),mouse pancreatic islets; high glucose + 10 nM peptide,496.4 ng/3 islets
same,Insulin Content average (ng/3 islets),mouse pancreatic islets; high glucose + 30 nM peptide,458.6 ng/3 islets
same,Insulin Content average (ng/3 islets),mouse pancreatic islets; high glucose + 90 nM peptide,463.1 ng/3 islets
